Experimental data as given in patent publication US7538112B2, “HIV integrase inhibitors” (Merck & Co., Inc., priority 2004, dated 2009).

Tested on: viruses containing mutations in the integrase gene (T66I/S153Y, N155S, and F121Y)
Assay: Sensitivity of viruses containing integrase mutations associated with resistance to other integrase inhibitors
Format: cell-based, HIV
Text: In preclinical laboratory experiments, it has been possible to select viruses resistant to integrase inhibitors in structural classes other than those embraced by the present invention, such as diketo acids, naphthyridine carboxamides, and dihydropyrimidine carboxamides. Mutations in the integrase gene that confer resistance (defined herein as greater than or equal to a 10-fold loss of sensitivity) to such compounds include T66I/S153Y, N155S, and F121Y. Certain compounds of the present invention have less than a 10-fold loss in sensitivity against viruses containing these and other mutations associated with resistance to other integrase inhibitors, and thus can be effective inhibitors of such viruses. Compounds of the present invention which are effective against such viruses include, for example, the compounds of Examples 37, 50, 56, 62, 69, 86, 87, 88, 151, 153, 159-A, 159-B, 166, 189, 193, and 205.

CCN1C[C@H](C)n2c(c(O)c3c(=O)n(Cc4ccc(F)c(Cl)c4)nc(C(=O)NC)c32)C1=O [Example 62, 6(S)-2-(3-Chloro-4-fluorobenzyl)-8-ethyl-10-hydroxy-N,6-dimethyl-1,9-dioxo-1,2,6,7,8,9-hexahydropyrazino[1′,2′:1,5]pyrrolo[2,3-d]pyridazine-4-carboxamide]
effective against viruses with integrase resistance mutations: effective

CCN1C[C@H](C)n2c(c(O)c3c(=O)n(Cc4ccc(F)c(Cl)c4)nc(S(=O)(=O)CC)c32)C1=O [Example 166, 6(S)-2-(3-Chloro-4-fluorobenzyl)-8-ethyl-10-hydroxy-4-(ethylsulfonyl)-6-methyl-7,8-dihydropyrazino[1′,2′:1,5]pyrrolo[2,3-d]pyridazine-1,9(2H,6H)-dione]
effective against viruses with integrase resistance mutations: effective

CC(C)N1C[C@H](C)n2c(c(O)c3c(=O)n(Cc4ccc(F)cc4)ncc32)C1=O [Example 193, 6(S)-2-(4-Fluorobenzyl)-10-hydroxy-8-isopropyl-6-methyl-7,8-dihydropyrazino[1′,2′:1,5]pyrrolo[2,3-d]pyridazine-1,9(2H,6H)-dione]
effective against viruses with integrase resistance mutations: effective

CC(C)N1C[C@H](C)n2c(c(O)c3c(=O)n(Cc4ccc(F)c(Cl)c4)nc(C(=O)N(C)C)c32)C1=O [Example 88, 6(S)-2-(3-Chloro-4-fluorobenzyl)-10-hydroxy-8-isopropyl-N,N,6-trimethyl-1,9-dioxo-1,2,6,7,8,9-hexahydropyrazino[1′,2′:1,5]pyrrolo[2,3-d]pyridazine-4-carboxamide]
effective against viruses with integrase resistance mutations: effective

CC(C)N1C[C@H](C)n2c(c(O)c3c(=O)n(Cc4ccc(F)c(Cl)c4)nc(N(C)S(C)(=O)=O)c32)C1=O [Example 153, N-[(6S)-2-(3-Chloro-4-fluorobenzyl)-10-hydroxy-8-isopropyl-6-methyl-1,9-dioxo-1,2,6,7,8,9-hexahydropyrazino[1′,2′:1,5]pyrrolo[2,3-d]pyridazin-4-yl]-N-methylmethanesulfonamide]
effective against viruses with integrase resistance mutations: effective

CCN1CC(C)n2c(c(O)c3c(=O)n(Cc4ccc(F)c(Cl)c4)nc(N(CC)S(C)(=O)=O)c32)C1=O (racemic) [Example 159-B, N-[2-(3-Chloro-4-fluorobenzyl)-10-hydroxy-8-ethyl-6-methyl-1,9-dioxo-1,2,6,7,8,9-hexahydropyrazino[1′,2′:1,5]pyrrolo[2,3-d]pyridazin-4-yl]-N-ethylmethanesulfonamide]
effective against viruses with integrase resistance mutations: effective

CCN1CC(CO)n2c(c(O)c3c(=O)n(Cc4ccc(F)cc4)ncc32)C1=O (stereo not shown) [Example 205, 2-(4-Fluorobenzyl)-10-hydroxy-8-ethyl-6-hydroxymethyl-7,8-dihydropyrazino[1′,2′:1,5]pyrrolo[2,3-d]pyridazine-1,9(2H,6H)-dione]
effective against viruses with integrase resistance mutations: effective

CCNC(=O)c1nn(Cc2ccc(F)cc2)c(=O)c2c(O)c3n(c12)[C@@H](C)CN(C(C)C)C3=O [Example 87, 6(S)-2-(4-Fluorobenzyl)-10-hydroxy-8-isopropyl-N-ethyl-6-methyl-1,9-dioxo-1,2,6,7,8,9-hexahydropyrazino[1′,2′:1,5]pyrrolo[2,3-d]pyridazine-4-carboxamide]
effective against viruses with integrase resistance mutations: effective

CCNC(=O)c1nn(Cc2ccc(F)c(Cl)c2)c(=O)c2c(O)c3n(c12)[C@@H](C)CN(C(C)C)C3=O [Example 86, 6(S)-2-(3-Chloro-4-fluorobenzyl)-10-hydroxy-8-isopropyl-N-ethyl-6-methyl-1,9-dioxo-1,2,6,7,8,9-hexahydropyrazino[1′,2′:1,5]pyrrolo[2,3-d]pyridazine-4-carboxamide]
effective against viruses with integrase resistance mutations: effective

CCNC(=O)c1nn(Cc2ccc(F)c(Cl)c2)c(=O)c2c(O)c3n(c12)CCN(C)C3=O [Example 69, 2-(3-Chloro-4-fluorobenzyl)-N-ethyl-10-hydroxy-8-methyl-1,9-dioxo-1,2,6,7,8,9-hexahydropyrazino[1′,2′:1,5]pyrrolo[2,3-d]pyridazine-4-carboxamide]
effective against viruses with integrase resistance mutations: effective

Cc1nn(Cc2ccc(F)cc2)c(=O)c2c(O)c3n(c12)[C@@H](C)CN(C(C)C)C3=O [Example 50, 6(S)-2-(4-Fluorobenzyl)-10-hydroxy-8-isopropyl-4,6-dimethyl-7,8-dihydropyrazino[1′,2′:1,5]pyrrolo[2,3-d]pyridazine-1,9(2H,6H)-dione]
effective against viruses with integrase resistance mutations: effective

CCN1C[C@H](C)n2c(c(O)c3c(=O)n(Cc4ccc(F)c(Cl)c4)nc(N(C)S(C)(=O)=O)c32)C1=O [Example 151, N-[(6S)-2-(3-Chloro-4-fluorobenzyl)-10-hydroxy-8-ethyl-6-methyl-1,9-dioxo-1,2,6,7,8,9-hexahydropyrazino[1′,2′:1,5]pyrrolo[2,3-d]pyridazin-4-yl]-N-methylmethanesulfonamide]
effective against viruses with integrase resistance mutations: effective

Cc1nn(Cc2ccc(F)cc2)c(=O)c2c(O)c3n(c12)C(C)CN(C)C3=O (stereo not shown) [Example 37, 2-(4-Fluorobenzyl)-10-hydroxy-4,6,8-trimethyl-7,8-dihydropyrazino[1′,2′:1,5]-pyrrolo[2,3-d]pyridazine-1,9(2H,6H)-dione]
effective against viruses with integrase resistance mutations: effective

CCN1C[C@H](C)n2c(c(O)c3c(=O)n(Cc4ccc(F)c(Cl)c4)ncc32)C1=O [Example 189, 6(S)-2-(3-Chloro-4-fluorobenzyl)-10-hydroxy-8-ethyl-6-methyl-7,8-dihydropyrazino[1′,2′:1,5]pyrrolo[2,3-d]pyridazine-1,9(2H,6H)-dione]
effective against viruses with integrase resistance mutations: effective

CCN1CC(CO)n2c(c(O)c3c(=O)n(Cc4ccc(F)cc4)nc(C)c32)C1=O (racemic) [Example 56, 8-Ethyl-2-(4-fluorobenzyl)-10-hydroxy-4-methyl-6-(hydroxymethyl)-7,8-dihydropyrazino[1′,2′:1,5]pyrrolo[2,3-d]pyridazine-1,9(2H,6H)-dione]
effective against viruses with integrase resistance mutations: effective

CC(C)N1C[C@H](C)n2c(c(O)c3c(=O)n(Cc4ccc(F)cc4)nc(N(C)S(C)(=O)=O)c32)C1=O [Example 159-A, N-[(6S)-2-(4-Fluorobenzyl)-10-hydroxy-8-isopropyl-6-methyl-1,9-dioxo-1,2,6,7,8,9-hexahydropyrazino[1′,2′:1,5]pyrrolo[2,3-d]pyridazin-4-yl]-N-methylmethanesulfonamide]
effective against viruses with integrase resistance mutations: effective
